In BigSolDB 2.1:

C[C@H]1[C@H](C)CC[C@]2(C(=O)O)CC[C@]3(C)C(=CC[C@@H]4[C@@]5(C)CC[C@H](O)C(C)(C)[C@@H]5CC[C@]43C)[C@H]12 gave a solubility (mole fraction) (in ethanol, 293.6 K) of 0.000514, a solubility (mole fraction) (in ethanol, 300.1 K) of 0.000766 and a solubility (mole fraction) (in ethanol, 305.2 K) of 0.000735. It also gave a solubility (mole fraction) (in ethanol, 310 K) of 0.000761, a solubility (mole fraction) (in ethanol, 320.1 K) of 0.00105 and a solubility (mole fraction) (in ethanol, 323.2 K) of 0.00105. For the same compound, the solubility (mole fraction) (in ethanol, 329.7 K) was 0.00116, the solubility (mole fraction) (in ethyl acetate, 293.6 K) was 0.000777 and the solubility (mole fraction) (in ethyl acetate, 300.1 K) was 0.000771. It also gave a solubility (mole fraction) (in ethyl acetate, 305.2 K) of 0.00101, a solubility (mole fraction) (in ethyl acetate, 310 K) of 0.00113 and a solubility (mole fraction) (in ethyl acetate, 320.1 K) of 0.00155. For the same compound, the solubility (mole fraction) (in ethyl acetate, 323.2 K) was 0.00162, the solubility (mole fraction) (in ethyl acetate, 329.7 K) was 0.00186 and the solubility (mole fraction) (in isopropanol, 293.6 K) was 0.00144. The solubility (mole fraction) (in isopropanol, 300.1 K) was 0.00181, the solubility (mole fraction) (in isopropanol, 305.2 K) was 0.00197 and the solubility (mole fraction) (in isopropanol, 310 K) was 0.00213. The solubility (mole fraction) (in isopropanol, 320.1 K) was 0.00273, the solubility (mole fraction) (in isopropanol, 323.2 K) was 0.00275 and the solubility (mole fraction) (in isopropanol, 329.7 K) was 0.00295. It also gave a solubility (mole fraction) (in methanol, 293.6 K) of 0.000723, a solubility (mole fraction) (in methanol, 300.1 K) of 0.000851 and a solubility (mole fraction) (in methanol, 305.2 K) of 0.000931. The solubility (mole fraction) (in methanol, 310 K) was 0.00102, the solubility (mole fraction) (in methanol, 320.1 K) was 0.00133 and the solubility (mole fraction) (in methanol, 323.2 K) was 0.00132. It also gave a solubility (mole fraction) (in methanol, 329.7 K) of 0.00146.
